# Data as given in patent US20170114128A1, “USE OF TGF-BETA ANTAGONISTS OF TREAT TYPE-2 DIABETES” (ALBERT EINSTEIN COLLEGE OF MEDICINE, INC., priority 2014, published 2017).
# Assays:
# [1] = system: normal C57BL/6 mice; experiment: Hyperinsulinemic-euglycemic clamp after third-ventricle TGF-β1; format: in vivo
# Text: Brain TGF-β excess increases hepatic glucose production: In physiology, blood glucose levels are balanced by glucose uptake in metabolic tissues (such as muscles) and glucose production in the liver. A hyperinsulinemic-euglycemic clamp was employed to analyze if any of these metabolic processes was relevant to the pro-diabetic effect of brain TGF-β excess. In the experiment, normal C57BL/6 mice were pre-implanted with a catheter into the jugular vein and also a cannula into the hypothalamic third ventricle. Following surgical recovery, overnight-fasted mice were injected with TGF-β1 (4 ng) using the same protocol as described in FIG. 1e, and were subjected to the clamp procedure. During the clamp period, blood glucose concentrations were maintained at approximate 120-130 mg/dl, with steady insulin infusion (4 mU kg^−1 min^−1) together with various rates of 20% glucose infusion to maintain euglycemia. […] While the basal blood insulin concentrations in TGF-β-injected mice were higher which indicated insulin resistance, constant insulin infusion in the clamp elevated the blood insulin concentrations of these mice and controls to similar levels. […] Blood glucagon concentrations were similar between TGF-β1-treated mice and controls. Therefore, the brain-liver axis mediates the pro-diabetic effect of brain TGF-β excess.
# Hyperinsulinemic-euglycemic clamp. Mice that were pre-implanted with cannula in the third ventricle were anesthetized, and a catheter was inserted into the right jugular vein and crossed over from the underneath and out the back of the neck. Following surgical recovery, overnight-fasted mice were injected with TGF-β1 (4 ng) vs. vehicle, once at the beginning of fasting and the other in the following morning at four hours prior to clamp. Conscious mice were then subjected to euglycemic clamp, with the blood glucose concentrations maintained at 120-130 mg/dl for four hours, followed by steady-state human insulin infusion (4 mU kg−1 min−1) together with infusion of 20% glucose at variable rates to maintain euglycemia. During the final 1 hour of the clamp, [3-^3H] glucose and 2-deoxy-D-[1-^14C] glucose (PerkinElmer) infusions were used. Blood samples were collected from tail vein. At the end of the procedure, mice were euthanized, and various tissues were removed and quickly frozen in liquid nitrogen. Plasma insulin and glucagon concentrations were analyzed with ELISA kits (Crystal Chem. and R&D Systems).
# [2] = system: hypothalamic RNA SGs/PBs genes, IκBα mRNA, Pomc mRNA; experiment: Hypothalamic mRNA levels and HuR immunostaining after third-ventricle TGF-β1; format: in vivo, mice
# Text: POMC neurons direct the pro-T2D effect of TGF-β excess: It was subsequently studied if hypothalamic neurons are critical for the pro-diabetic effects of brain TGF-β excess. […] It was studied if POMC neurons could be crucial for the pro-diabetic effect of brain TGF-β excess. […] To carry out this study, a genetic mouse model was generated with Tgfbr2 knockout specifically in POMC neurons by crossing Tgfbr2lox/lox mice with POMC-Cre mice. As a result, compound offspring POMC-Tgfbr2lox/lox mice were obtained and littermate control Tgfbr2lox/lox mice. These mice were maintained on normal chow feeding or 3-week HFD feeding. […] Taken together, the action of TGF-β in POMC neurons is important for the pro-diabetic effect of brain TGF-β excess. POMC-Cre can target other types of neurons during the developmental stage (34), thus, the pro-diabetic mechanism of TGF-β may involve additional hypothalamic or brain neurons.
# Induction of hypothalamic RNA SGs/PBs by TGF-β or HFD: In exploring how TGF-β could activate hypothalamic NF-κB without requiring pro-inflammatory kinase signaling, attention was directed to a possible role from mRNA regulation. In coping with inflammatory stress, eukaryotic cells can develop a process known as RNA stress response which is characterized by RNA stress granules (SGs) and processing bodies (PBs) (36-38). In this reaction, messenger ribonuclear protein (mRNP) byproducts exit from polysomes and form RNA SGs at discrete cytoplasmic foci. RNA SGs primarily consist of poly(A)+mRNAs-containing 48S pre-initiation complexes, small ribosomal subunits, mRNA decay factor tristetraprolin (TTP), translation initiation factors such as eukaryotic translation initiation factor-4E (eIF4E), eIF4G, eIF4A, eIF4B, poly(A)-binding protein (PABP), and RNA helicases (36-38). RNA stress response can lead to the export of mRNPs into the PBs, a complex which harbors an array of mRNA decay machineries that act to dispose mRNAs from SGs or polysomes (36-38). PBs contain nontranslating mRNAs, translation repressors, mRNA decay machineries (including 5′-3′ mRNA decay system, nonsense-mediated decay pathway, and RNA-induced silencing complex), and mRNA decay factors such as TTP, eIF4E, DEAD box RNA helicase family member p54/RCK, […] (CPEB), B-related factor 1/RNA polymerase III transcription initiation factor IIIB subunit (BRF1), eukaryotic translation initiation factor 4E transporter (4-ET), and RNA-binding protein Smaug (36-38). […] In line with these observations, we examined if the morphology of RNA SGs could be detected in the hypothalamus of these mice. […] Consistently, these morphological changes were found in the hypothalamus of HFD-fed mice but almost not chow-fed mice (supplementary FIG. 6b). […]
# [3] = system: HEK 293 cells; experiment: IκBα mRNA levels in HEK 293 cells after TGF-β1 treatment; format: cell-based; conditions: HEK 293 cells (data not shown)
# Text: (§1) TGF-β degrades IκBα mRNA to atypically activate NF-κB: RNA SGs/PBs have the function to degrade mRNAs by targeting the AU-rich element (AUE) at the 3′ untranslated region (UTR) (36-38). […] This information led to the suspicion that TGF-β could work to degrade IκBα mRNA. […] To test if TGF-β induced IκBα mRNA decay is accountable for the glucose metabolism disorder, an experiment was designed to study if the pro-diabetic effect of brain TGF-β excess could be reversed through directly increasing hypothalamic IκBα mRNA. Using an approach which was established previously (23), a lentiviral system was employed to deliver exogenous Iκbα mRNA into the mediobasal hypothalamus of chow-fed C57BL/6 mice, and indeed, this lentivirus-delivered Iκbα mRNA prevented TGF-β1 injection from activating hypothalamic NF-κB (FIG. 5f). Metabolic analysis confirmed that this treatment attenuated the effect of TGF-β1 from impairing insulin-dependent glucose control (FIG. 5g).
# [4] = system: hypothalamic GT1-7 cells; experiment: IκBα mRNA levels in GT1-7 cells after TGF-β1 treatment; format: cell-based; conditions: GT1-7 cells, TGF-β1 10 ng/ml
# Text: as §1
# Cell culture. GT1-7 cells were cultured as described previously (14). Briefly, GT1-7 cells were maintained in Dulbecco's Modified Eagle's Medium (Invitrogen) with 10% fetal bovine serum (Hyclone) and penicillin/streptomycin (Invitrogen), at 37° C. in a humidified atmosphere containing 5% CO2. Cells were fasted in serum-free medium for an overnight period, and then were subjected to TGF-β1 treatment at the indicated dose and time course.
substance,measurement,setting,value
"TGF-β1: transforming growth factor-β1 (Sigma), cytokine dissolved in artificial cerebrospinal fluid for third-ventricle injection","glucose infusion rate, lower than vehicle-injected mice","[1]; 4 ng, clamp, insulin 4 mU kg^−1 min^−1, on average",80%
same,hepatic glucose production vs control,[1]; basal condition,higher
same,basal blood insulin concentrations,"[1]; basal, vs controls",higher
same,rates of glucose disposal vs vehicle,"[1]; clamp, 4 ng",similar
same,suppression of hepatic glucose production by insulin infusion,[1]; during clamp,failed to do so
same,blood glucagon concentrations vs controls,"[1]; mouse, in vivo",similar
same,glucose infusion rates vs vehicle-injected mice,[1]; since the first 20 min of clamp,significantly lower
same,HuR-containing aggregates in perinuclear regions of hypothalamic cells,[2]; HuR immunostaining,present
same,hypothalamic increases of RNA SGs/PBs genes,"[2]; injection into the third ventricle of normal mice (4 ng), similar to 3-month HFD",similarly induced
same,hypothalamic IκBα mRNA levels,[2]; intra-third ventricle injection (4 ng),sufficient to decrease
same,Pomc mRNA levels in the hypothalamus vs controls,"[2]; mouse, in vivo",lower
same,IκBα mRNA levels,[3],notably decreased
same,IκBα mRNA levels,[4],notably decreased
